Paper PMC5439695 (PLoS ONE, 2017)

What was measured:
NRF2 = settings: cited from earlier work
[1] = test system: HEK293 and HepG2 cell lines; settings: human

Row | Structure (SMILES) | Nrf2 TF activity (in words) (NRF2; Tox21 assay) | cytotoxicity kinetics activity profile in the four real-time cytotoxicity assays [1] | increase NRF2 TF activity, POD potency (NRF2)
1 | CC(C)(c1ccc(O)cc1)c1ccc(O)cc1 [Bisphenol A] | increased Nrf2 TF activity | active only in HEK293[glo] | 
2 | CC(=O)O[C@H]1CC[C@@]2(C)C(=CC[C@@H]3[C@@H]2CC[C@]2(C)C(C(C)=O)=CC[C@@H]32)C1 [Dehydropregnenolone acetate] |  |  | 4.85 log10(M)*-1
3 | O=C(OC1CCCCC1)c1ccccc1C(=O)OC1CCCCC1 [Dicyclohexyl phthalate] |  |  | 4.18 log10(M)*-1
4 | O.[Br-].[Br-].c1cc[n+]2c(c1)-c1cccc[n+]1CC2 [Diquat dibromide monohydrate] |  |  | 5.17 log10(M)*-1
